# Assay results from patent publication US12492188B2, “1H-benzo[D]imidazole derivatives as TLR9 inhibitors for the treatment of fibrosis” (BRISTOL-MYERS SQUIBB COMPANY, priority 2020, dated 2025).
# Read-outs that look alike come from different tables or passages of the source.
# Tests used:
# Type in all cases: cell-based
# human TLR9 = biological target: T1, human TLR9 (Homo sapiens, UniProt Q9NR96); test: TLR9 inhibition reporter assay (HEK-Blue cells, secreted embryonic alkaline phosphatase reporter)
# T1 construct: host or cells: HEK-Blue cells (HEK293-derived reporter line)
# T1 sequence (Q9NR96 26-1032): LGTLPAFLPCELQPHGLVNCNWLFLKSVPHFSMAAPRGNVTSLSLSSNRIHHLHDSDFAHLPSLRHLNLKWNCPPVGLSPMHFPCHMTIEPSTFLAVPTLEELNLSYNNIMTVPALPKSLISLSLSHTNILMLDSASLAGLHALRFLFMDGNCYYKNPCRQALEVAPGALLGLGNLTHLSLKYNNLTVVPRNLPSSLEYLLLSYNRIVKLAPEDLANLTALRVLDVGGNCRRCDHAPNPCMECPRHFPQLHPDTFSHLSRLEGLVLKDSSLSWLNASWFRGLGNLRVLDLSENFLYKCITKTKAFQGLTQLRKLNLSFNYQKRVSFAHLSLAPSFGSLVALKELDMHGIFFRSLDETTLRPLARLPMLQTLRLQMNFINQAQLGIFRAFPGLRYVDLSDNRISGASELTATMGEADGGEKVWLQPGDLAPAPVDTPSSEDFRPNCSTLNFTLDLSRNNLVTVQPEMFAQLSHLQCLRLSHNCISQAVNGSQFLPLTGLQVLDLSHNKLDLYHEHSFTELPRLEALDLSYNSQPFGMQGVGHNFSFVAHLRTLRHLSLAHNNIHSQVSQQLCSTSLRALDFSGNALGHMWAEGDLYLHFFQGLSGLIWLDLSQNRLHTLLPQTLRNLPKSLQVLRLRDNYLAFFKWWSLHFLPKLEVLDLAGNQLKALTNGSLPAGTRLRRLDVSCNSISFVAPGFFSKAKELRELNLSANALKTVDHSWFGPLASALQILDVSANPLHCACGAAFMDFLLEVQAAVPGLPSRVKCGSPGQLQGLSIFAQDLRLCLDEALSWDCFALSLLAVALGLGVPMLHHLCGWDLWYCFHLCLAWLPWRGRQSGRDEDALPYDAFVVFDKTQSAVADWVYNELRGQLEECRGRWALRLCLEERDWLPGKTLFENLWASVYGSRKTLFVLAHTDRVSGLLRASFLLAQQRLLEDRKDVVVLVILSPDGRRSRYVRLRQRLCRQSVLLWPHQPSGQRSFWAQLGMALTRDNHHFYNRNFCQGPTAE
# Summary of the method: (§1)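 Cells seeded at 15000 (TLR7), 20,000 (TLR8) or 25,000 (TLR9) per well; compound 0.05 nM–50 μM, 30 min RT pre-incubation. Agonists: gardiquimod 7.5 μM, R848 15.9 μM, ODN2006 5 nM respectively. 22 h, 37 °C; SEAP via HEK-Blue Detection; % inhibition vs agonist+DMSO and known-inhibitor wells.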
# human TLR7 = biological target: T2, human TLR7 (Homo sapiens, UniProt Q9NYK1); test: TLR7 inhibition reporter assay (HEK-Blue cells, secreted embryonic alkaline phosphatase reporter); conditions: HEK-Blue cells overexpressing human TLR7, stimulated with gardiquimod 7.5 μM; read-out: TLR 7 IC50
# T2 construct: host or cells: HEK-Blue cells (HEK293-derived reporter line)
# T2 sequence (Q9NYK1 27-1049): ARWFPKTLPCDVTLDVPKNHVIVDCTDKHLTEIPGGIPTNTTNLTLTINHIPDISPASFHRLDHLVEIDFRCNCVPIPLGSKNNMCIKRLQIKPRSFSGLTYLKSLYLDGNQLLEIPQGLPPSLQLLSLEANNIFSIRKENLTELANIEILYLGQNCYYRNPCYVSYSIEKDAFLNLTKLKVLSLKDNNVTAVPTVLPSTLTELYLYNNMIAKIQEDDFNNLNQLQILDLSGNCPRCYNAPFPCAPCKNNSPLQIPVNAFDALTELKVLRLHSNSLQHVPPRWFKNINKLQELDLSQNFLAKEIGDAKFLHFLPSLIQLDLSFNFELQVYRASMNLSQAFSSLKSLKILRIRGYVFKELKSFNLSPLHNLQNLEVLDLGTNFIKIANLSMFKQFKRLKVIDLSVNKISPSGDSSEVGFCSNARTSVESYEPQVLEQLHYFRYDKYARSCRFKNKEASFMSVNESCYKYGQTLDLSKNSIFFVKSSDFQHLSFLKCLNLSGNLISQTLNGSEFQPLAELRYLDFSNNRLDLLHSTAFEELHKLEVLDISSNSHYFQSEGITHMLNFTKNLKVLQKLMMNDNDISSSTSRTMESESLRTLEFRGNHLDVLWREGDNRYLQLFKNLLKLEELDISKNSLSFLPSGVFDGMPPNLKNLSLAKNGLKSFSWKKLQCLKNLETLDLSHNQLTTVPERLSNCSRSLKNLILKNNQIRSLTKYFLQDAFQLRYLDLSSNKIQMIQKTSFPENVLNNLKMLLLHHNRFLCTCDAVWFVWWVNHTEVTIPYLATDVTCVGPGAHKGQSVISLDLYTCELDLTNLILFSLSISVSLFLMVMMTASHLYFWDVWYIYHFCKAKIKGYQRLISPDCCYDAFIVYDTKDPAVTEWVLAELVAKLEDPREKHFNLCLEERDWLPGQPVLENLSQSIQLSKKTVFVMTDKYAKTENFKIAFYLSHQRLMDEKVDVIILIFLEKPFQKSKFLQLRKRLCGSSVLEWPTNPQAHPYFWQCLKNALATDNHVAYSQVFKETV
# Summary of the method: as §1
# human TLR8 = biological target: T3, human TLR8 (Homo sapiens, UniProt Q9NR97); test: TLR8 inhibition reporter assay (HEK-Blue cells, secreted embryonic alkaline phosphatase reporter); conditions: HEK-Blue cells overexpressing human TLR8, stimulated with R848 15.9 μM; read-out: TLR 8 IC50
# T3 construct: host or cells: HEK-Blue cells (HEK293-derived reporter line)
# T3 sequence (Q9NR97 27-1041): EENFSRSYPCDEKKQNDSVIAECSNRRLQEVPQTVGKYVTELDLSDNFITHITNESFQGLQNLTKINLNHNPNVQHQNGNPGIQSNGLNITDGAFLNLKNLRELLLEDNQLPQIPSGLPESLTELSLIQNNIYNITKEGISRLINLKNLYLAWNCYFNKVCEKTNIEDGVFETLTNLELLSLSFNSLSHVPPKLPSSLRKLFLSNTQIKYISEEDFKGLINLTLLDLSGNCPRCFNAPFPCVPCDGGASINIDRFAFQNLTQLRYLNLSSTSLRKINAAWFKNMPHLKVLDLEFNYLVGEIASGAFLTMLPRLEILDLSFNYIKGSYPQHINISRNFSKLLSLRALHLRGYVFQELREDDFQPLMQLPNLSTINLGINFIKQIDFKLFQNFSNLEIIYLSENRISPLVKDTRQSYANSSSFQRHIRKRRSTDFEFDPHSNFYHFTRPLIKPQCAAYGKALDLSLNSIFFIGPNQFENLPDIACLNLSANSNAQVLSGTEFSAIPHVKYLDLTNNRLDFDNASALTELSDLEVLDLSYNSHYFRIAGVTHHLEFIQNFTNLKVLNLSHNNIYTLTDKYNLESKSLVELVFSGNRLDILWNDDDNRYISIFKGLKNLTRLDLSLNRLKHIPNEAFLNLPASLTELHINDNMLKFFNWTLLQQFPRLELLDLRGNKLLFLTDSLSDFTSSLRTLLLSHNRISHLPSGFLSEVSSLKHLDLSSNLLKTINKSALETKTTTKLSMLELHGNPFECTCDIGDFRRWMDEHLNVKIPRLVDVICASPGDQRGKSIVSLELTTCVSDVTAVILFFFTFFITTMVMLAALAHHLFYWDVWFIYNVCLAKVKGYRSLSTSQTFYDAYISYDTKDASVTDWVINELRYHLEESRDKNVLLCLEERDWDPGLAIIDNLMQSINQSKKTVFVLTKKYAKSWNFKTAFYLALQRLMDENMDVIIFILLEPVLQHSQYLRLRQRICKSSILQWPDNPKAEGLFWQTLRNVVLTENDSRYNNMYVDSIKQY
# Summary of the method: as §1
# [1] = HEK-Blue cells overexpressing human TLR9, stimulated with ODN2006 5 nM, read-out: TLR 9 IC50
# [2] = HEK-Blue human TLR9 reporter cells
IC50 (human TLR9; [1]),IC50 (human TLR9; [2]),IC50 (human TLR7),IC50 (human TLR8),Compound
36 nM,36 nM,1900 nM,> 50000 nM,"CS(=O)(=O)c1ccc(-c2nc3c(F)cc(C4CCN(C5CCN(C6CCOCC6)CC5)CC4)cc3n2C2CC2)cc1 [Example 321, 1-cyclopropyl-4-fluoro-2-(4-(methylsulfonyl)phenyl)-6-(1′-(tetrahydro-2H-pyran-4-yl)-[1,4′-bipiperidin]-4-yl)-1H-benzo[d]imidazole]"
12 nM,12 nM,2300 nM,> 50000 nM,"CS(=O)(=O)c1ccc(-c2nc3c(F)cc(C4CCN(C5CC6CCC(C5)N6C5CCOCC5)CC4)cc3n2C2CC2)cc1 (centres unmarked) [Example 328, 1-cyclopropyl-4-fluoro-2-(4-(methylsulfonyl)phenyl)-6-(1-(8-(tetrahydro-2H-pyran-4-yl)-8-azabicyclo[3.2.1]octan-3-yl)piperidin-4-yl)-1H-benzo[d]imidazole]"
28 nM,28 nM,1200 nM,> 50000 nM,"CS(=O)(=O)c1ccc(-c2nc3c(F)cc(C4CCN(C5CC6CCC(C5)N6C5CCOCC5)CC4)cc3n2C2CC2)cc1 (centres unmarked) [Example 329, 1-cyclopropyl-4-fluoro-2-(4-(methylsulfonyl)phenyl)-6-(1-(8-(tetrahydro-2H-pyran-4-yl)-8-azabicyclo[3.2.1]octan-3-yl)piperidin-4-yl)-1H-benzo[d]imidazole]"
172 nM,170 nM,> 50000 nM,> 50000 nM,"Cc1cc(C2CCN(C3CC4CCC(C3)N4C(C)C)CC2)cc2[nH]c(-c3ccc(S(C)(=O)=O)cc3)nc12 (centres unmarked) [Example 332, 6-(1-(8-isopropyl-8-azabicyclo[3.2.1]octan-3-yl)piperidin-4-yl)-4-methyl-2-(4-(methylsulfonyl)phenyl)-1H-benzo[d]imidazole]"
329 nM,330 nM,> 50000 nM,> 50000 nM,"Cc1cc(C2CCN(C3CC4CCC(C3)N4C(C)C)CC2)cc2[nH]c(-c3ccc(S(C)(=O)=O)cc3)nc12 (centres unmarked) [Example 333, 6-(1-(8-isopropyl-8-azabicyclo[3.2.1]octan-3-yl)piperidin-4-yl)-4-methyl-2-(4-(methylsulfonyl)phenyl)-1H-benzo[d]imidazole]"
296 nM,300 nM,> 50000 nM,> 50000 nM,"Cc1cc(C2CCN(C3CC4CCC(C3)N4C3CCC3)CC2)cc2[nH]c(-c3ccc(S(C)(=O)=O)cc3)nc12 (centres unmarked) [Example 334, 6-(1-(8-cyclobutyl-8-azabicyclo[3.2.1]octan-3-yl)piperidin-4-yl)-4-methyl-2-(4-(methylsulfonyl)phenyl)-1H-benzo[d]imidazole]"

# Second part, the compound before the results:
Compound,IC50 (human TLR9; [1]),IC50 (human TLR9; [2]),IC50 (human TLR7),IC50 (human TLR8)
"Cn1c(-c2ccc(S(C)(=O)=O)cc2)nc2ccc(C3CCN(C4CCCN(C5COC5)CC4)CC3)c(F)c21 (centres unmarked) [Example 314, 7-fluoro-1-methyl-2-(4-(methylsulfonyl)phenyl)-6-(1-(1-(oxetan-3-yl)azepan-4-yl)piperidin-4-yl)-1H-benzo[d]imidazole]",192 nM,190 nM,6100 nM,> 50000 nM
"Cn1c(-c2ccc(S(C)(=O)=O)cc2)nc2ccc(C3CCN(C4CCCN(C5COC5)CC4)CC3)c(F)c21 (centres unmarked) [Example 315, 7-fluoro-1-methyl-2-(4-(methylsulfonyl)phenyl)-6-(1-(1-(oxetan-3-yl)azepan-4-yl)piperidin-4-yl)-1H-benzo[d]imidazole]",147 nM,150 nM,6200 nM,> 50000 nM
"Cn1c(-c2ccc(S(C)(=O)=O)cc2)nc2ccc(C3CCN(C4CCCN(C5CCOCC5)CC4)CC3)c(F)c21 (centres unmarked) [Example 316, 7-fluoro-1-methyl-2-(4-(methylsulfonyl)phenyl)-6-(1-(1-(tetrahydro-2H-pyran-4-yl)azepan-4-yl)piperidin-4-yl)-1H-benzo[d]imidazole]",14 nM,14 nM,> 50000 nM,16700 nM
"Cc1cc(C2CCN(C3CCN(c4ccccc4)CC3)CC2)cc2c1nc(-c1ccc(S(C)(=O)=O)cc1)n2C [Example 318, 1,4-dimethyl-2-(4-(methylsulfonyl)phenyl)-6-(1′-phenyl-[1,4′-bipiperidin]-4-yl)-1H-benzo[d]imidazole]",269 nM,270 nM,10200 nM,> 50000 nM
"CC(C)CN1CCC(N2CCC(c3cc(F)c4nc(-c5ccc(S(C)(=O)=O)cc5)n(C5CC5)c4c3)CC2)CC1 [Example 319, 1-cyclopropyl-4-fluoro-6-(1′-isobutyl-[1,4′-bipiperidin]-4-yl)-2-(4-(methylsulfonyl)phenyl)-1H-benzo[d]imidazole]",94 nM,94 nM,1400 nM,> 50000 nM
